Results published in patent publication US11266743B2, “Peptide compositions and methods of use thereof” (priority 2017, dated 2022).
Entries after “also recorded” stand apart in the source; their conditions may differ.

How the values were obtained:
[1] = system: HeLa, RAW264.7, HepG2, and MCF-7 cells; experiment: TAMRA delivery assay (flow cytometry, confocal microscopy); format: cell-based; details: 0.5 μM CPP-TA + 4.5 μM CPP-C, 30 minutes at 4° C., 22° C., or 37° C.
Protocol: To determine the effect of the PNA cargo on delivery, we labeled CPPs, lacking the PNA705 cargo, with the fluorophore TAMRA on a C-terminal cysteine residue (CPP-TA) and measured delivery to multiple cell types. TAMRA-labelled CPPs, mixed with unlabeled CPPs at a 1:10 ratio in serum-free DMEM for a final concentration of 5 μM total peptide, was added to HeLa, RAW264.7, HepG2, and MCF-7 cells in 12-well cell culture plates and incubated for 30 minutes at 4° C., 22° C., or 37° C. prior to flow cytometric analysis (FIGS. 9-16). […] Delivery of TAMRA was verified by confocal microscopy for each cell type.
Hela, RAW264.7, HCT116, HepG2, and MCF-7 cells were plated in 12-well plates at 100,000 cells/well. After 24 hours, cells were gently washed in PBS, topped with 500 μl of CPP-TA solution containing 0.5 μM CPP-TA+4.5 uM CPP-C in sfDMEM without phenol red, and incubated for 30 min at either 4° C., 23° C., or 37° C. The incubation solution was aspirated and cells were treated with 100 μl 0.025% Trypsin for 3 minutes at 23° C. 500 μl DMEM containing 2% FBS, 125 nM Sytox Green, and 20 mM HEPES was used to suspend the cells. Cells were transferred to a filter-topped flow cytometry tube and analyzed on a BD™ LSR II flow cytometer. Cells displaying a normal morphology were gated and first analyzed for GFP fluorescence using the 488 nM laser. GFP negative cells were used to generate a histogram of TAMRA fluorescence, measured with the 543 nM laser.
Cells were treated as described above for the TAMRA delivery assay and immediately imaged to avoid artifacts resulting from fixation. The distribution of TAMRA and Sytox Green was analyzed using a confocal scanning Nikon Eclipse Ti2 inverted microscope using a 40× oil-immersion objective. Sytox Green was excited using the 488 nM laser and TAMRA was excited using the 543 nM laser.

[2] = system: Hela cells stably transfected with mCherry and GFP1-10; experiment: Split GFP assay (GFP-11 delivery); format: cell-based; details: 40 μM peptide-GFP-11, 22° C.
[3] = system: Hela cells stably transfected with mCherry and GFP1-10; experiment: Split GFP assay (GFP-11 delivery); format: cell-based; details: 40 μM peptide-GFP-11, 37° C.
Protocol: To test the ability of CPPs to deliver other cargoes, specifically a protease-sensitive peptide cargo, we modified the well-known split-GFP assay. CPPs were tested for the ability to deliver the polar 16-residue GFP-11 peptide across the membrane barrier. This peptide rescues the fluorescence of the cytosolic endogenous, non-fluorescent GFP1-10 protein. Here, we stably transfected Hela cells with a plasmid containing the full length mCherry and the non-fluorescent GFP1-10. Following incubation with CPP-GFP-11 constructs at multiple concentrations and temperatures for 30 minutes in serum free DMEM, cells were analyzed by flow cytometry for mCherry and GFP fluorescence (FIG. 17). Live cells expressing mCherry (˜50% of the total cells) were gated and their GFP fluorescence was analyzed. Unlike the luciferase splice correction assay where a single corrected mRNA transcript serves as template for many molecules of functional luciferase, the split GFP assay is stoichiometric; a single GFP-11 peptide can bind to a single GFP1-10 protein producing a finite fluorescent response.
Hela cells were transfected with p_mCherry-GFP1-10 (Addgene plasmid #78591) using LIPOFECTAMINE® 3000 (ThermoFisher). Single mCherry positive cells were sorted into 96-well plates using a BD™ FACSARIA™ cell sorter and colonies were maintained under G418 selection at […]. Stably transfected cells were plated in 12-well plates at 100,000 cells/well and grown overnight in complete DMEM. Cells were washed in PBS and incubated in 500 μl of CPP-GFP-11 solution at variable concentrations at 23° C. and 37° C. for 30 minutes. The CPP-GFP-11 solution was aspirated and 100 μl of 0.025% trypsin solution was added to each well. After detachment, cells were suspended in 500 μL of PBS+2% FBS and 20 mM HEPES. Cells were analyzed using a BD™ LSRII flow cytometer. Cells displaying a normal morphology were gated and first analyzed for mCherry fluorescence using the 543 nM laser. mCherry+ cells were used to generate a histogram of GFP fluorescence measured with the 488 nM laser.

P. aeruginosa [4] = experiment: Induced resistance, ten serial passages of broth sterilization assays; format: cell-based; details: ⅔ serially diluted antibiotics, overnight growth
From the text: Bacterial resistance against peptide antibiotics is known to occur, although it is reportedly more difficult to induce than resistance against conventional antibiotics. P. aeruginosa can gain resistance to some AMPs through selection for a variant with altered outer membrane composition. We used P. aeruginosa in a screen (FIG. 36) to select against rapid resistance. We tested if P. aeruginosa can stably gain resistance to the rationally designed peptides described herein and we compared their ability to adapt to conventional antibiotics under the same conditions. For ten serial passages, we performed broth sterilization assays using ⅔ serially diluted antibiotics with overnight growth. For each passage, we used the bacteria that grew at the highest antibiotic concentration to expand overnight for the subsequent generation. […] All of the conventional antibiotics promoted increasing resistance, and two promoted complete resistance by 10 passages.

[5] = Safety study of aspirated D-NOGCON; format: in vivo, C57BL/6 mice; details: aspiration
Protocol: (§1) The mice were then treated with D-NOGCON (SEQ ID NO:37), which were instilled in the trachea, exactly as described above for the administration of bacterial infection. Before attempting to treat a P. aeruginosa infection of the lung, we sought to establish a safe dose for administration of the D-NOGCON peptide via aspiration. Based on in vitro toxicity data (FIGS. 28D and 28E), a dosing regimen of 50 μL of D-NOGCON (100 μM) was administered every 8 hours for 3 days (9 doses). As a no treatment control, we administered 50 μL of PBS on the same schedule.
To monitor the toxicity we measured animal behavior and body weight changes (FIG. 29A). […] In the second safety trial, we administered 50 μL of D-NOGCON (50 μM) twice daily, for three days and monitored the animals behavior and body weight changes (FIG. 29B).

P. aeruginosa biofilms = experiment: Activity against P. aeruginosa biofilms; format: cell-based; details: 25 μM
Protocol: Bacterial biofilm formation on implanted medical devices is a serious medical problem because these biofilms can lead to life-threatening systemic infections. We tested selected peptides and rationally designed variants against biofilms formed by P. aeruginosa. […] D-NOGCON reduces viable bacteria by 3.6 logs ( 1/3000 reduction) at 25 μM, while the best conventional antibiotic, Ciprofloxacin, reduced viable bacteria by only 1.7 logs ( 1/55 reduction) at 25 μM.

P. aeruginosa [6] = experiment: Deep wound infection with luminescent P. aeruginosa, whole animal imaging; format: in vivo, mice
Protocol: Deep wounds in mice were infected with a luminescent strain of P. aeruginosa and monitored with whole animal imaging (FIGS. 35-37). In FIG. 36 infections are just beginning to become established. Areas of red indicate maximal bacterial colonization. No treatments have occurred. Treatment was twice per day, with 50 μg of D-NOGCON peptide in 20 μL of vehicle (0.025% acetic acid) starting 2 hours after infection. […] In the control animals (FIG. 36A), the infection is fully established across the entire wound bed and saturated the detector (red color). In the treated animals (FIG. 36B) the infection is much smaller in area and much lower in intensity, indicating it is under control.

S. aureus = experiment: Radial diffusion in the presence of RBCs; format: cell-based; parameters: key: The ↑ represents the improvement in performance that would be desired for a viable in vivo antimicrobial peptide; ↓: The symbol represents a regression in desired behavior; *=p<0.05; **=p<0.01; ***=p<0.001; details: change versus parent sequence; paired t-test
Protocol: Underlay agarose was prepared by adding 5 g of low EEO agarose and 0.03 g of TSB to 500 mL of 10 mM phosphate buffer (pH=7.4). Overlay agarose was prepared by adding 5 g of low EEO agarose and 30 g of TSB to 500 mL of 10 mM phosphate buffer (pH=7.4). Both solutions were heated until the agarose melted and then were autoclaved. To a rectangular, one-well plate, 20 mL of underlay agarose, inoculated with 8×10^6 CFUs of bacteria, was added. A sterile, 96-well plate replicator from Sigma-Aldrich was set in the molten agarose and removed one the agarose solidified. Antibiotic was prepared at 4 times the final desired concentration. For the antibiotic standard, a serial dilution of 3:4 across a 96-well plate was performed followed by 1:4 dilution with PBS. Otherwise, the peptide was diluted to 20 μM with RBCs and/or serum to give between 2% (1×10^8 cells/mL) and 20% (1×10^9 cells/mL). Solutions were incubated with gentle shaking for 30 minutes at 37° C. […]. Overlay was added, and the plate was incubated upside down overnight. Surface growth was cleared, the plates were sterilized with 25% methanol and 5% acetic acid. Zones of inhibition were photographed and analyzed using ImageJ. (FIG. 21)
The engineered peptide sequences and their derivation from parent sequences is shown, along with the underlying hypothesis described for the first set of peptides (Table 4) and the second set (Table 5). We performed statistical testing for performance in antimicrobial assays in the presence and absence of RBCs, as well as for cytotoxicity. The broth dilution results were tested using a two sample t-test (N=6-22). The radial diffusion results were tested using a paired t-test (N=4). The cytotoxicity results were tested using a paired t-test (N=3). The ↑ represents the improvement in performance that would be desired for a viable in vivo antimicrobial peptide. This corresponds to a decrease in MIC values (increased potency) and decreased cytotoxicity. The symbol represents a regression in desired behavior. (*=p<0.05, **=p<0.01, ***=p<0.001).

P. aeruginosa PA01 = experiment: Acute pneumonia induced by P. aeruginosa aspiration; format: in vivo, C57BL/6 mice
Protocol: Female C57BL/6 mice, aged five weeks, were obtained from Charles River Laboratories. Upon receipt, they were allowed at least one week to recover from transport and acclimate to the new housing environment. Mice were maintained on a standard chow diet. Experiments were performed with mice no younger than six weeks and no older than nine weeks. P. aeruginosa PA01 was cultured overnight in tryptic soy broth (TSB) at 37° C. and shaken at 220 RPM. Prior to infecting the mice, the overnight culture was diluted 100-fold into 25-mL of fresh TSB. The culture was grown for three hours before optical density was determined. Previous growth curve experiments allowed us to dilute this newly expanded culture to 1.4×10^8 CFU/mL. To infect an animal, mice were anesthetized using isoflurane and 50 μL of bacterial suspension (7×10^6 CFUs) was administered via intratracheal instillation. Briefly, the anesthetized mice were suspended from wire by their front feet and blunt forceps were used to extract the tongue. The tongue was pulled out and downward. The bacterial suspension was deposited in the back of the throat with a micropipette. The nares of the animal were then covered while the mouse recovered from anesthesia. The chest was gently rubbed to promote inhalation. The mice were made to inhale 15 times before the tongue was released and the mouse was removed from the wire. The animals were then allowed a minute to fully awaken and then returned to their cages.
as §1
Our initial experiment was survival-based. We infected 8 mice (4 for treatment, 4 for vehicle) with the above bacterial load in 50 μL of PBS and allowed 2 hours of recovery prior to the initial treatment administration. After the recovery period, dosing proceeded as it had for the second safety study (50 μL, 50 μM, 2× daily). […] At the 24-hour time point, mice from both groups lost ˜12% body weight (FIG. 30A). Between 24 and 48-hour timepoints, 3 controls and 1 treated animal were sacrificed (FIG. 30B). […] Euthanasia is required in these cases because the animals are clearly suffering and are not able to obtain the nutrients required for survival. […] The lungs of 3 animals from each treatment group were removed, homogenized, and plated on PIA plates to determine the P. aeruginosa CFU burden (FIG. 30C).
A third study reduced the CFU burden of P. aeruginosa to 7×10^6 and mice were treated as with the previous experiment. As in the previous experiment, both treated and untreated animals lost 10-12% of their body weight after 24 hours (FIG. 31A). […] What was not taken into consideration in this experiment was the propensity for infection to spread to other tissues.

## GRKKRRQRRRPPQ [TAT, reference compound]
[1]
  TAMRA delivery (words, rank order): CPP-2»CPP-3=CPP-1>CPP-4>TAT=penetratin
[2]
  mCherry positive cells GFP-11 is delivered to: 7%
[3]
  mCherry positive cells GFP-11 is delivered to: 21%

## RRWARLRLVLAY [ARVA]
P. aeruginosa [4]
  induction of resistance: promoted total resistance in a few passages

## RRWARRLAFAFRR [D-NOGCON]
[5]; 50 μL of 50 μM twice daily for three days
  tolerability (behavior and body weight changes): sufficiently safe
[5]; 50 μL of 100 μM every 8 hours for 3 days
  tolerability (behavior and body weight changes): too toxic for the animals to tolerate
P. aeruginosa biofilms
  reduction of viable bacteria in biofilm: 3.6 logs
P. aeruginosa [6]; after a single day of treatment, 50 μg in 20 μL twice per day starting 2 hours after infection
  wound infection (luminescence imaging): dramatically reduced compared to the control
P. aeruginosa [6]; first 5 days, treated on days 0, 1, and 2
  integrated luminescence: significant protection, slowing of bacterial growth and more rapid clearance over control
P. aeruginosa [6]; scale 0 (normal) to 3 each for five items, maximum 15
  summed activity and behavior scores: more normal behavior; also recorded: better summed behavioral scores
S. aureus
  Radial Diffusion vs. S. aureus: ↑Radial diffusion vs.
P. aeruginosa PA01; survival study, 24-hour time point, same in vehicle group
  body weight lost: ~12%
P. aeruginosa PA01; survival study, 50 μL, 50 μM, 2× daily, first dose 2 hours after infection
  survival of the initial 24 hours: All mice from both treatment groups survived
P. aeruginosa PA01; survival study, between 24 and 48-hour timepoints, 4 mice per group, 3 controls sacrificed
  animals sacrificed: 1
P. aeruginosa PA01; survival study, day 3, all animals of both groups
  body weight lost: more than 20%
P. aeruginosa PA01; survival trial, 50 μL, 50 μM, 2× daily
  infection titer: little improvement in the infection titer
P. aeruginosa PA01; third experiment, lower CFU burden
  infection titer over control: little improvement
P. aeruginosa PA01; third study, after 24 hours, same in untreated animals
  body weight lost: 10-12%
P. aeruginosa PA01; third study, two doses over 24 hours
  CFU burden versus untreated: non-significant increase
